{"source": "paper PMC6135396", "about": "“Repurposing antimalarial aminoquinolines and related compounds for treatment of retinal neovascularization” (PLoS ONE, 2018)", "key": {"[1]": {"system": "human retinal microvascular endothelial cells (HRECs)", "assay": "In vitro HREC tube formation assay", "assay_type": "cell-based", "description": "In vitro tube formation assays were carried out as previously described. Briefly, near confluent microvascular endothelial cells were pretreated with VEGF (100 ng/ml) for 2 h and then treated for 24 h with test compounds at serial concentrations, as indicated. Cells without VEGF treatment or with VEGF only were used as control. The cells were then detached and plated sparsely (2.5 ×10^4/well) on 24-well plates coated with 12.5% (v/v) Matrigel (BD, Franklin Lakes, NJ) and left overnight. The medium was then aspirated and 250 μl/well of 12.5% Matrigel was overlaid on the cells for 2 h to allow the polymerization of Matrigel, followed by addition of 500 μl/well of basal medium MCD131 with 10% fetal calf serum (FCS) for 24 h. The following day, the culture plates were observed under a phase contrast microscope and photographed at random in five fields (×10). The tubule length (mm/mm^2) per microscope field was quantified."}, "[2]": {"assay": "Hepatic microsome stability, human", "assay_type": "in vitro ADME", "conditions": "liver microsomes, pH 7.4, terminal half-life of a two-phase exponential decay, read-out: Hepatic microsome stability T1/2", "description": "Hepatic microsomes stability assays were performed as reported before. […] After preincubation at 37°C for 10 min, enzyme reactions were initiated by adding 120 μL of NADPH-generating system (2 mM NADP^+, 10 mM glucose-6-phosphate, 0.4 U/ml glucose-6-phosphate dehydrogenase, and 5 mM MgCl2) in the presence of 100 mM potassium phosphate buffer (pH 7.4). The final concentration of each model compound used was 1 μM. The microsomal concentrations used were 1.0 mg/mL. Compounds were incubated in microsomes for 0, 5, 15, 30 and 60 min. The reactions were stopped by the addition of ice cold ACN and the reaction mixtures were centrifuged at 10,000g for 10 min before the supernatant was removed for analysis.\nExcept for the primary assay in the HTS campaign, all experiments were repeated at least three times. Results are expressed as mean ± SEM. The Mann-Whitney test was used to determine statistical significance of the densitometry data of Western blot analysis. Unpaired two-tailed Student’s t-test was performed for the significance of the results of ELISA and in vitro tubule formation assay. ANOVA was used to determine the significance in vivo CNV models using the Tukey post-hoc test for multiple comparisons. […] T1/2 was calculated using the best fit curve resulting from non-linear (human) or linear (mouse and rat) regression analyses using Prism 7."}, "parental CHO-K1 cells": {"system": "parental CHO-K1 cells", "assay": "Parental cAMP counter assay (cells lacking APJ)", "assay_type": "cell-based", "conditions": "Cricetulus griseus", "description": "To identify small-molecule antagonists of the apelin receptor (APJ) we interrogated the SBP compound file of ~425,000 compounds using CHO-k1-AGTRL1 cells overexpressing human APJ and a competitive immunoassay of intracellular cAMP [59]. The compound file was screened at a concentration of 10 μM. For all 333 plates assayed, the average Z-factor = 0.68 and the average S/B = 8.2, indicating a robust assay performance. […] There were 2550 compounds that met this criterion, representing a hit rate of ~0.6%. […] Included in this hit set was a series of aminoquinolines, exemplified by compound 1 (Fig 1B). […] As part of an initial hit-validation strategy, these compounds and three other commercially available analogs were purchased for further testing. The purity and identify of all compounds were confirmed by NMR and LC-MS, and they were subsequently retested in a battery of cell-based assays of APJ function and counter screens. […] (Fig 1D).\nPathHunter™ GPCR Arrestin and cAMP Hunter™ cell lines (DiscoveRx Corp., Fremont, CA) were used to assay G-protein-dependent signaling and β-arrestin recruitment to APJ. CHO-K1 cells stably expressing APJ (CHO-K1-APJ) or AT1 (CHO-K1-AT1) with β-arrestin/β-galactosidase enzyme fragment complementation constructs were maintained in HAM's F-12 medium (Hyclone, Logan, UT) supplemented with 10% FBS, 1X Penicillin-Streptomycin-Glutamine (Invitrogen; Carlsbad, CA), 300 μg/ml hygromycin (EMD Biosciences, San Diego, CA), and 800 μg/ml Geneticin (Cellgro, Manassas, VA). Primary Human Retinal Microvascular Endothelial Cells (HRECs) were purchased from Cell Systems (Kirkland, WA) and maintained in Complete Classic Medium with CultureBoost-R™ (Cell Systems). Parent CHO-K1 cells were obtained from ATCC and maintained in HAM’s F-12 medium supplemented with 10% FBS, and1X Penicillin-Streptomycin-Glutamine (Invitrogen; Carlsbad, CA). All cells were incubated at 37°C (5% CO2, 95% relative humidity) and maintained at less than 70% to 80% confluence (approximately 75,000 cells/cm^2). Cell heterologously expressing APJ or AT1 were not used after 10 passages. HRECs were not used in any experiments after five passages.\nAll reagents unless otherwise specified are components of the cAMP HitHunter (DiscoveRx) kit. Ligand Buffer + 60 μM Forskolin (Cayman Chemical, Ann Arbor, MI) was made fresh on the day of the experiment and used for the dilution of positive and negative controls as well as all peptides. CHO-K1-APJ cells were dispensed into a 1536-well tissue culture microplate (Corning, Corning, NY) using a Multidrop at a seeding density of 1,000 cells/well and returned to the incubator. The next day, the cell culture media was removed and replaced with 15 μl/well of assay buffer (1X HBSS, 10 mM HEPES) containing anti-cAMP antibody (DiscoveRx). […] Plates were incubated at room temperature in the dark for 3 hours prior to chemiluminescence detection on an EnVision (Perkin Elmer) using a counting time of 1 s/well."}}}
{"smiles": "CCN(CC)Cc1cc(Nc2ccnc3cc(Cl)ccc23)ccc1O", "note": "[AQ, amodiaquine]", "values": [{"measurement": "Effect on Ap13-dependent increase in HREC tube formation", "setting": "[1]; Ap13-induced, concentration-dependent", "value": "blocked Ap13-dependent increases in tube formation"}, {"measurement": "Effect on VEGF-induced HREC tube formation", "setting": "[1]; VEGF 100 ng/mL, absence of exogenous Ap13", "value": "blocked VEGF-induced tube formation"}, {"measurement": "half-life at 1 μM", "setting": "[2]", "value": 17, "unit": "min"}, {"measurement": "IC50", "setting": "parental CHO-K1 cells", "value": "> 99", "unit": "µM"}]}
